The numbers were not newly measured in US7186882B2, “Transgenic mouse over-expressing calreticulin (CRT) in vascular smooth muscle cells” (priority 2003, dated 2007), which cites them from elsewhere.

The test system of one data set is MMP-2/MMP-9. The following applies: MMP-2/MMP-9 inhibitor, values given as illustrative.
A further data set relates to CRT. The following applies: siRNA to nucleotides 1917–1937 of SEQ ID NO. 1; Troussard et al., 2003.
The subject of data set [1] is intimal hyperplasia after arterial injury. The following applies: adult rats, exogenously added CRT; Dai et al., 1997.
A further data set deals with endothelial cells. The following applies: added to the endothelial culture media; Pike et al., 1999.

Where a SMILES comes first, the peptide text is derived from it. Bridges are numbered along the chain shown (N, C = ends).

A word on the IC50: it is the concentration that inhibits the measured activity by half. Regarding `O=C(O)[C@@H](Cc1ccccc1)NS(=O)(=O)c1ccc(-c2ccccc2)cc1` [MMP-2/MMP-9 inhibitor I, (2R)-2-[(4-Biphenylylsulfonyl)amino]-3-phenylpropionic Acid], in the data set with MMP-2/MMP-9, the 50% inhibitory concentration (IC50) was 240 to 350 nM. In the case of `CC(C)C[C@@H]1NC(=O)[C@H]([C@@H](C)O)NC(=O)[C@H](Cc2ccccc2)NC(=O)CNC(=O)[C@H](Cc2c[nH]c3ccccc23)NC(=O)[C@H](Cc2cnc[nH]2)NC(=O)[C@H]([C@@H](C)O)NC(=O)[C@H]([C@@H](C)O)NC(=O)[C@@H](N)CSSC[C@@H](C(=O)O)NC1=O` [MMP-2/MMP-9 inhibitor III] (H-CTTHWGFTLC-OH; disulfide 1-10), in the data set on MMP-2/MMP-9, the IC50 is 10000 nM. For `O=C(NO)[C@@H](Cc1ccccc1)NS(=O)(=O)c1ccc(-c2ccccc2)cc1` [MMP-2/MMP-9 inhibitor II], the IC50 in the data set on MMP-2/MMP-9 is 17 to 30 nM. On to “siRNA: small interference RNA to CRT mRNA, sense 5′-GCUGAUCGUGCGGCCGGACAA dTT 3′, anti-sense 5′-UUGUCCGGCCGCACGAUCAGC dTT 3′ (sense GCUGAUCGUGCGGCCGGACAATT; antisense UUGUCCGGCCGCACGAUCAGCTT; chemistry not fully specified)”, for which, in the data set with CRT, the “expression of CRT” value is given as “significantly diminish the expression of CRT”.

B1: CRT: calreticulin, 46 kDa ER protein, exogenously added to vascular cells or vessel lumen (protein)
chain: MLLPVPLLLGLLGLAAAEPVVYFKEQFLDGDGWTERWIESKHKSDFGKFVLSSGKFYGDQEKDKGLQTSQDARFYALSARFEPFSNKGQPLVVQFTVKHEQNIDCGGGYVKLFPAGLDQKDMHGDSEYNIMFGPDICGPGTKKVHVIFNYKGKNVLINKDIRCKDDEFTHLYTLIVRPDNTYEVKIDNSQVESGSLEDDWDFLPPKKIKDPDASKPEDWDERAKIDDPTDSKPEDWDKPEHIPDPDAKKPEDWDEEMDGEWEPPVIQNPEYKGEWKPRQIDNPDYKGTWIHPEIDNPEYSPDANIYAYDSFAVLGLDLWQVKSGTIFDNFLITNDEAYAEEFGNETWGVTKTAEKQMKDKQDEEQRLKEEEEEKKRKEEEEAEEDEEDKDDKEDEDEDEEDKDEEEEEAAAGQAKDEL
modifications: CRT peptide sequence from CRT cDNA
notes: calreticulin, 46 kDa ER protein, exogenously added to vascular cells or vessel lumen
As to B1, the “intimal hyperplasia (restenosis) after arterial injury” value in data set [1] is given as “reducing intimal hyperplasia”. In addition, the endothelial cell proliferation result in the data set on endothelial cells is listed as “selectively inhibits endothelial cell proliferation”.
